Among the data in ChEMBL document CHEMBL4732135, “Structural and mechanistic insights into the inhibition of amyloid-β aggregation by Aβ fragment derived synthetic peptides” (Eur J Med Chem, 2021) are inhibition and viability values, retold here.

The structures appear in SMILES notation. Square brackets hold non-standard residues; d marks the D form. Peptide text beside a SMILES is read from it. Gly(cPent) = N[C@H](C(=O)O)C1CCCC1; Ala(cPr) = N[C@@H](CC1CC1)C(=O)O; NMeL = CN[C@@H](CC(C)C)C(=O)O; Abu = CC[C@H](N)C(=O)O; βAla = NCCC(=O)O

For the first test, the target named is Amyloid-beta precursor protein (Homo sapiens) (UniProt P05067). The test can be described thus: Inhibition of amyloid beta (1 to 42) (unknown origin) assessed as reduction in peptide aggregation at 4 uM measured after 24 hrs by thioflavin-T fluorescence assay relative to control.
Sequence of Amyloid-beta precursor protein (Homo sapiens) (P05067 whole entry): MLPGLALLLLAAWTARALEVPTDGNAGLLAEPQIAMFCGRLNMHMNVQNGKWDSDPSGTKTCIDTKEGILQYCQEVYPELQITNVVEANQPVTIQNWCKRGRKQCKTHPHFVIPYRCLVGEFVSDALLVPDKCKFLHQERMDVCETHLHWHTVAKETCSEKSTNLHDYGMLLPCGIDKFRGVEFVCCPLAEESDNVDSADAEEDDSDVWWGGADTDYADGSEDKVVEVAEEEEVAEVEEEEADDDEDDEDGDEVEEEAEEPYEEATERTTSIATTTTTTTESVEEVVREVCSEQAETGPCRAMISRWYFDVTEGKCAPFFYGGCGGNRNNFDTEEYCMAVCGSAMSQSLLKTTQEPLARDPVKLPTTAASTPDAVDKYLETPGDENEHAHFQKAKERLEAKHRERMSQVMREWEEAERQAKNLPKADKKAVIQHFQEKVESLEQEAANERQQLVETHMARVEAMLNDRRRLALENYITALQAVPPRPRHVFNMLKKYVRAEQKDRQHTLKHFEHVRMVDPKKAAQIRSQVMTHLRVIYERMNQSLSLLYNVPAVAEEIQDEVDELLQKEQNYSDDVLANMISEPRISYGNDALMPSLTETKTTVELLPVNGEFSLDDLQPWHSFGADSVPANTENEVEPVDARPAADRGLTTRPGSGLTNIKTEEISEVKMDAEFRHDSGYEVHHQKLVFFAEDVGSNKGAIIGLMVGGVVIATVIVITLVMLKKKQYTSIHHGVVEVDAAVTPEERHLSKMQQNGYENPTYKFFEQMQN
Conditions: not given
What is called inhibition is the relative decrease from the control value, in per cent. For `CC[C@H](NC(=O)[C@@H](NC(=O)[C@@H](NC(=O)[C@@H](N)C(C)C)C(C)C)[C@@H](C)CC)C(=O)O` (H-VVI[Abu]-OH), the inhibition worked out at 2%.

In the case of `CC[C@H](C)[C@H](NC(=O)[C@@H](NC(=O)[C@@H](N)C(C)C)C(C)C)C(=O)NCCC(=O)O` (H-VVI[βAla]-OH), the inhibition worked out at 0%.

For `CC[C@H](NC(=O)[C@@H](NC(=O)[C@@H](N)C(C)C)C(C)C)C(=O)N[C@@H](C)C(=O)O` (H-VV[Abu]A-OH), the inhibition worked out at 0%.

As for `CC(C)[C@H](N)C(=O)N[C@H](C(=O)N[C@@H](CC1CC1)C(=O)N[C@@H](C)C(=O)O)C(C)C` (H-VV[Ala(cPr)]A-OH), the inhibition is 0%.

Turning to `CC(C)[C@H](N)C(=O)N[C@H](C(=O)N[C@H](C(=O)N[C@@H](C)C(=O)O)C1CCCC1)C(C)C` (H-VV[Gly(cPent)]A-OH), the inhibition worked out at 40.3%.

`CC(C)C[C@@H](C(=O)N[C@@H](C)C(=O)O)N(C)C(=O)[C@@H](NC(=O)[C@@H](N)C(C)C)C(C)C` (H-VV[NMeL]A-OH): the inhibition stood at 44.1%.

The next test shares this target. The test can be described thus: Inhibition of amyloid beta (1 to 42) (unknown origin) assessed as reduction in peptide aggregation at 2 uM measured after 24 hrs by thioflavin-T fluorescence assay relative to control.
Conditions: not given
For `CC[C@H](NC(=O)[C@@H](NC(=O)[C@@H](NC(=O)[C@@H](N)C(C)C)C(C)C)[C@@H](C)CC)C(=O)O` (H-VVI[Abu]-OH), the inhibition was found to be 2.8%.

Regarding `CC[C@H](C)[C@H](NC(=O)[C@@H](NC(=O)[C@@H](N)C(C)C)C(C)C)C(=O)NCCC(=O)O` (H-VVI[βAla]-OH), the inhibition was determined as 0%.

For `CC[C@H](NC(=O)[C@@H](NC(=O)[C@@H](N)C(C)C)C(C)C)C(=O)N[C@@H](C)C(=O)O` (H-VV[Abu]A-OH), the inhibition worked out at 0%.

For `CC(C)[C@H](N)C(=O)N[C@H](C(=O)N[C@@H](CC1CC1)C(=O)N[C@@H](C)C(=O)O)C(C)C` (H-VV[Ala(cPr)]A-OH), the inhibition was found to be 0%.

With `CC(C)[C@H](N)C(=O)N[C@H](C(=O)N[C@H](C(=O)N[C@@H](C)C(=O)O)C1CCCC1)C(C)C` (H-VV[Gly(cPent)]A-OH), the inhibition was 17.1%.

Turning to `CC(C)C[C@@H](C(=O)N[C@@H](C)C(=O)O)N(C)C(=O)[C@@H](NC(=O)[C@@H](N)C(C)C)C(C)C` (H-VV[NMeL]A-OH), the inhibition was found to be 31.6%.

The test system of another test is PC-12. The experiment in a line: Neuroprotective activity against amyloid beta 42-induced toxicity in rat PC-12 cells assessed as cell viability at 4 uM measured after 6 hrs by MTT assay (reference value: 74.05%). Format: functional. The note with it: read-out: Activity. A general note: Tetrazolium dyes change colour on reduction, which living cells bring about.
Consider `CC[C@H](NC(=O)[C@@H](NC(=O)[C@@H](NC(=O)[C@@H](N)C(C)C)C(C)C)[C@@H](C)CC)C(=O)O` (H-VVI[Abu]-OH), for which the viability at 4 µM turned out to be 73.4%.

On to `CC[C@H](C)[C@H](NC(=O)[C@@H](NC(=O)[C@@H](N)C(C)C)C(C)C)C(=O)NCCC(=O)O` (H-VVI[βAla]-OH), for which the viability at 4 µM came to 93.1%.

Turning to `CC[C@H](NC(=O)[C@@H](NC(=O)[C@@H](N)C(C)C)C(C)C)C(=O)N[C@@H](C)C(=O)O` (H-VV[Abu]A-OH), the viability at 4 µM amounted to 94.9%.

For `CC(C)[C@H](N)C(=O)N[C@H](C(=O)N[C@@H](CC1CC1)C(=O)N[C@@H](C)C(=O)O)C(C)C` (H-VV[Ala(cPr)]A-OH), the viability at 4 µM was determined as 77%.

Take `CC(C)[C@H](N)C(=O)N[C@H](C(=O)N[C@H](C(=O)N[C@@H](C)C(=O)O)C1CCCC1)C(C)C` (H-VV[Gly(cPent)]A-OH): the viability at 4 µM came out at 91.9%.

Regarding `CC(C)C[C@@H](C(=O)N[C@@H](C)C(=O)O)N(C)C(=O)[C@@H](NC(=O)[C@@H](N)C(C)C)C(C)C` (H-VV[NMeL]A-OH), the viability at 4 µM is 87.2%.

The target in a further test is Amyloid-beta precursor protein (Homo sapiens) (UniProt P05067). The test can be described thus: Inhibition of amyloid beta (1 to 42) (unknown origin) assessed as reduction in peptide aggregation at 10 uM measured after 24 hrs by thioflavin-T fluorescence assay relative to control.
Conditions: not given
For the compound `CC[C@H](NC(=O)[C@@H](NC(=O)[C@@H](NC(=O)[C@@H](N)C(C)C)C(C)C)[C@@H](C)CC)C(=O)O` (H-VVI[Abu]-OH), the inhibition came out at 32.5%.

As to `CC[C@H](C)[C@H](NC(=O)[C@@H](NC(=O)[C@@H](N)C(C)C)C(C)C)C(=O)NCCC(=O)O` (H-VVI[βAla]-OH), the inhibition is 13%.

For `CC[C@H](NC(=O)[C@@H](NC(=O)[C@@H](N)C(C)C)C(C)C)C(=O)N[C@@H](C)C(=O)O` (H-VV[Abu]A-OH), the inhibition is 4.4%.

On to `CC(C)[C@H](N)C(=O)N[C@H](C(=O)N[C@@H](CC1CC1)C(=O)N[C@@H](C)C(=O)O)C(C)C` (H-VV[Ala(cPr)]A-OH), for which the inhibition was 0%.

Take `CC(C)[C@H](N)C(=O)N[C@H](C(=O)N[C@H](C(=O)N[C@@H](C)C(=O)O)C1CCCC1)C(C)C` (H-VV[Gly(cPent)]A-OH): the inhibition came out at 47.8%.

In the case of `CC(C)C[C@@H](C(=O)N[C@@H](C)C(=O)O)N(C)C(=O)[C@@H](NC(=O)[C@@H](N)C(C)C)C(C)C` (H-VV[NMeL]A-OH), the inhibition came to 61%.

The test system of another test is PC-12. The test can be described thus: Neuroprotective activity against amyloid beta 42-induced toxicity in rat PC-12 cells assessed as cell viability at 10 uM measured after 6 hrs by MTT assay (reference value: 74.05%). Format: functional. The note with it: read-out: Activity.
As to `CC[C@H](NC(=O)[C@@H](NC(=O)[C@@H](NC(=O)[C@@H](N)C(C)C)C(C)C)[C@@H](C)CC)C(=O)O` (H-VVI[Abu]-OH), the viability at 10 µM worked out at 65.6%.

`CC[C@H](C)[C@H](NC(=O)[C@@H](NC(=O)[C@@H](N)C(C)C)C(C)C)C(=O)NCCC(=O)O` (H-VVI[βAla]-OH): the viability at 10 µM came to 87.3%.

Regarding `CC[C@H](NC(=O)[C@@H](NC(=O)[C@@H](N)C(C)C)C(C)C)C(=O)N[C@@H](C)C(=O)O` (H-VV[Abu]A-OH), the viability at 10 µM is 89.2%.

`CC(C)[C@H](N)C(=O)N[C@H](C(=O)N[C@@H](CC1CC1)C(=O)N[C@@H](C)C(=O)O)C(C)C` (H-VV[Ala(cPr)]A-OH): the viability at 10 µM amounted to 65.9%.

`CC(C)[C@H](N)C(=O)N[C@H](C(=O)N[C@H](C(=O)N[C@@H](C)C(=O)O)C1CCCC1)C(C)C` (H-VV[Gly(cPent)]A-OH): the viability at 10 µM stood at 84.2%.

Turning to `CC(C)C[C@@H](C(=O)N[C@@H](C)C(=O)O)N(C)C(=O)[C@@H](NC(=O)[C@@H](N)C(C)C)C(C)C` (H-VV[NMeL]A-OH), the viability at 10 µM was determined as 84.8%.

The test system of another test is PC-12. The test can be described thus: Neuroprotective activity against amyloid beta 42-induced toxicity in rat PC-12 cells assessed as cell viability at 2 uM measured after 6 hrs by MTT assay (reference value: 74.05%). Format: functional. The settings on record: read-out: Activity.
For `CC[C@H](NC(=O)[C@@H](NC(=O)[C@@H](NC(=O)[C@@H](N)C(C)C)C(C)C)[C@@H](C)CC)C(=O)O` (H-VVI[Abu]-OH), the viability at 2 µM was 77.9%.

On to `CC[C@H](C)[C@H](NC(=O)[C@@H](NC(=O)[C@@H](N)C(C)C)C(C)C)C(=O)NCCC(=O)O` (H-VVI[βAla]-OH), for which the viability at 2 µM amounted to 97.8%.

For the compound `CC[C@H](NC(=O)[C@@H](NC(=O)[C@@H](N)C(C)C)C(C)C)C(=O)N[C@@H](C)C(=O)O` (H-VV[Abu]A-OH), the viability at 2 µM was found to be 89.1%.

Consider `CC(C)[C@H](N)C(=O)N[C@H](C(=O)N[C@@H](CC1CC1)C(=O)N[C@@H](C)C(=O)O)C(C)C` (H-VV[Ala(cPr)]A-OH), for which the viability at 2 µM came to 68.4%.

As for `CC(C)[C@H](N)C(=O)N[C@H](C(=O)N[C@H](C(=O)N[C@@H](C)C(=O)O)C1CCCC1)C(C)C` (H-VV[Gly(cPent)]A-OH), the viability at 2 µM was determined as 85.6%.

In the case of `CC(C)C[C@@H](C(=O)N[C@@H](C)C(=O)O)N(C)C(=O)[C@@H](NC(=O)[C@@H](N)C(C)C)C(C)C` (H-VV[NMeL]A-OH), the viability at 2 µM amounted to 96.3%.
